The nature of data set [1]: Serum pharmacokinetics after single oral dose in normoxic calves. The following applies: calves, single oral dose.
Method: (§1) Pharmacokinetic parameters were calculated by a non-compartmental model using Phoenix WinNonlin v8.1 ([Wagner, 1993]).
The conditions of data set [2]: in humans; ref Iwamoto et al., 2013; cited from earlier work.
In another data set the test system is bovine PH-fibs. Set-up: method as in Li et al., 2011. The following applies: ref Li et al., 2011; cited from earlier work.
Data set [3] has as its system rat models of hypoxia-induced pulmonary hypertension. The note with it: cited from earlier work.
The next data set in a line: in vivo. The following applies: male, Holstein, bovine, serum, po, 235 mg.
[4] abbreviates: ref Cho et al., 2010, Cavasin et al., 2012.

SMILES strings stand for the structures.

Method for in vivo: as §1

Regarding `O=C(CCCCCCC(=O)Nc1ccccc1)NO[C@@H]1O[C@H](C(=O)O)[C@@H](O)[C@H](O)[C@H]1O` [Vorinostat glucoronide], the “ratio of metabolite AUC to vorinostat AUC” value in data set [1] is given as roughly 3 fold. Further, the “metabolite AUC relative to that of vorinostat” value in data set [2] was 3–4 times.
As for `CCC(=O)CCCCC[C@@H]1NC(=O)[C@H]2CCCCN2C(=O)[C@H]([C@@H](C)CC)NC(=O)[C@H](Cc2cn(OC)c3ccccc23)NC1=O` [apicidin], the activated fibroblast phenotype entry with bovine PH-fibs is on record as “reversed”.
Consider `Nc1ccccc1NC(=O)c1ccc(CNC(=O)OCc2cccnc2)cc1` [MS-275], for which, in data set [3] (setting [4]), the RV function result was “preserved”; the “RV hypertrophic and pro-fibrotic remodeling” value is reported as “attenuated”.
On to `O=C(O)CCC(=O)Nc1ccccc1` [Succininanilic Acid, succinanilic acid], for which the “ratio of metabolite AUC to vorinostat AUC” value in data set [1] is roughly 20 fold. Also, in the data set “in vivo”, the Tmax was 6 h. In data set [2], the “metabolite AUC relative to that of vorinostat” value is recorded as 10–13 times.
On to `Nc1ccccc1NC(=O)c1ccc(CNc2nccc(-c3cccnc3)n2)cc1` [MCD-0103], for which, in data set [3] (setting [4]), the RV function entry is “preserved”; the “RV hypertrophic and pro-fibrotic remodeling” value is on record as “attenuated”.
`CCCC(CCC)C(=O)O` [valproic acid]: the RV hypertrophy result in data set [3] (setting [4]) is listed as “attenuated”. The “hypoxia-induced PH in rats” value in data set [3] (ref Zhao et al. (2012)) was “inhibited”.

By Tmax is commonly meant the time from dosing to the highest level.

Source of the values: paper PMC8450341 (Frontiers in Physiology, 2021).
